The results in this text go back to PMC10857906, “PROTAC-mediated NR4A1 degradation as a novel strategy for cancer immunotherapy” (The Journal of Experimental Medicine, 2024).

For one assay, the target named is T1, NR4A1 (Homo sapiens, UniProt P22736).
T1 construct: NR-V04 effectively promoted the degradation of NR4A1 in two human melanoma cell lines within 16 h; endogenous in cells; host or cells: CHL-1, A375, WM164, M229 human melanoma cells
Description: NR4A1 degradation in CHL-1 human melanoma cells (immunoblotting). In kind it is cell-based. The note with it: CHL-1 cells. The method, then: Human melanoma cell lines: A375 and CHL-1 (gifts from Dr. D. Zhou, the University of Texas Health Science Center, San Antonio, TX, USA) were cultured in Dulbecco’s Modified Eagles’ Medium (DMEM, D5796; Sigma-Aldrich), WM164 and M229 (gifts from Dr. K.S.M. Smalley’s lab) were cultured in RPMI-1640 (R8758; Sigma-Aldrich). Mouse melanoma cell lines: B16F10 (CRL-6475, ATCC) was cultured in DMEM, SW1 and SM1 (gift from Dr. K.S.M. Smalley, Moffitt Cancer Center, Tampa, FL, USA) were cultured in RPMI. Human epithelial kidney cell lines: HEK293T (293T, CRL-3216; ATCC) and Vhl-KO-293T (gift from Dr. D. Zhou, the University of Texas Health Science Center, San Antonio, TX, USA) were cultured in DMEM. Mouse colon cancer cell lines: MC38 (ENH204-FP; Kerafast Inc.) was cultured in DMEM supplemented with 1 mM glutamine, […] non-essential amino acids (11140050; Thermo Fisher Scientific), 1 mM sodium pyruvate (11360070; Thermo Fisher Scientific), and 10 mM HEPES (15630080; Thermo Fisher Scientific). All cell culturing media were supplemented with 10% fetal bovine serum (FBS, F2442; Sigma-Aldrich), 100 U/ml penicillin, and 100 µg/ml streptomycin (P4333; Sigma-Aldrich).
Samples were lysed using radioimmunoprecipitation assay buffer (RIPA) lysis buffer (150 mM NaCl, 5 mM EDTA, 50 mM Tris pH 8.0, 0.5% sodium deoxycholate, 1% NP-40, 0.1% SDS) supplemented with 1 mM dithiothreitol and protease inhibitors. The lysates were separated by SDS-PAGE and analyzed using standard western blotting procedures ([Khan et al., 2019]). Antibodies: human NR4A1 (ab153914, 1:1,000; Abcam), mouse NR4A1 (14-5965-82, 1:1,000; Invitrogen), NR4A2 (AV38753, 1:1,000; Sigma-Aldrich), NR4A3 (TA804893, 1: 1,000; Thermo Fisher Scientific), VHL (68547, 1:1,000; Cell Signaling), β-actin (13E5, 1:5,000; Cell Signaling), β-tubulin (9F3, 1: 5,000; Cell Signaling), and GAPDH (D16H11, 1: 5,000; Cell Signaling) were employed for protein detection.
(In general: A western blot detects proteins with antibodies after separation by electrophoresis.)

Another assay relates to B16F10 melanoma. Description: B16F10 melanoma syngeneic tumor model. In kind it is in vivo, mouse. An excerpt: 7–9-wk-old C57BL/6J, B6.129S2-Ighm^tm1Cgn/J (002288), B6.129S2-Nr4a1^tm1Jmi/J (NR4A1^−/−, 006187), and NOD-SCID interleukin-2 receptor gamma null (NSG) mice were purchased from Jackson Laboratories. For all studies involving NR-V04 and celastrol, the compounds were formulated in 50% phosal PG, 45% miglyol 810N, and 5% polysorbate 80 and administered via i.p. injection.
For syngeneic tumor models, 5 × 10^5 cells MC38, Yumm1.7, and Yummer1.7, 1 × 10^5 cells of B16F10 were resuspended in PBS and implanted into 7–9-wk-old mice subcutaneously. For the tumor inhibition experiment, mice were treated with 1.8 mg/kg NR-V04 or 0.75 mg/kg celastrol by i.p. injection twice weekly. For the immune profile experiment, once tumors reached 0.5 cm in diameter, mice were treated with 1.8 mg/kg NR-V04 by i.p. injection twice weekly. For the toxicity experiment, male and female non-tumor-bearing mice were treated with 2 mg/kg NR-V04 for two doses in the first week and 5 mg/kg for another two doses in the second week. Blood samples were taken from the submandibular (facial) vein before each treatment and 42 days later for hematological analysis, and body weight was measured twice per week up to day 42. Mice were euthanized in accordance with the IACUC protocol once the largest tumors reached 2 cm in diameter, and tissues were collected for further analysis.

T1 sequence (P22736 whole entry): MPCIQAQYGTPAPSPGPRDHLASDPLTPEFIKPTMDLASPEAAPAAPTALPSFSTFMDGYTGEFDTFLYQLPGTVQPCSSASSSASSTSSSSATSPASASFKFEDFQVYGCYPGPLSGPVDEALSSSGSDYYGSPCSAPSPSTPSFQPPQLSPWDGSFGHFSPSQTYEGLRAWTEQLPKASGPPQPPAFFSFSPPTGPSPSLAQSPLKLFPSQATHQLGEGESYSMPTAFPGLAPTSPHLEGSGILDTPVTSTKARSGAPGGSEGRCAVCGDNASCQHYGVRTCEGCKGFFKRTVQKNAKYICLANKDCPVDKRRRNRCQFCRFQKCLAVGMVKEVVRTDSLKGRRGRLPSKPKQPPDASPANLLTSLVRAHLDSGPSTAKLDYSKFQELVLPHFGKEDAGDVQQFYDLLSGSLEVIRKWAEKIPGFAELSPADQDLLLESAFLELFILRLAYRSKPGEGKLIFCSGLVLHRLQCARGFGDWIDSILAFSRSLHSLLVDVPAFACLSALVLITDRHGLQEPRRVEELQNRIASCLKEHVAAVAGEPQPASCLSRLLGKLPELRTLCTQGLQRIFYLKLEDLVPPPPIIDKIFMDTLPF

As to `CC1=C(O)C(=O)C=C2C1=CC=C1[C@@]2(C)CC[C@@]2(C)[C@@H]3C[C@](C)(C(=O)NCCOCCOCCOCCOCC(=O)N[C@H](C(=O)N4C[C@H](O)C[C@H]4C(=O)N[C@@H](C)c4ccc(-c5scnc5C)cc4)C(C)(C)C)CC[C@]3(C)CC[C@]12C` [NR-V04], the “NR4A1 protein level, initial screening” value on NR4A1 (250 nM, 16 h, immunoblotting and densitometry) is “highest potency in reducing the protein level of NR4A1”. Besides, at NR4A1 (0.5 μM MG132 10 min, then 500 nM NR-V04 16 h), the “NR4A1 protein level with proteasome inhibitor MG132 pretreatment” value is listed as “effectively rescued the NR4A1 protein level”. Besides, the “NR4A1 protein level at early time point” value at NR4A1 (500 nM, 4 h) was “initial induction of NR4A1 protein”. Moreover, the “NR4A1 degradation with VHL ligand VHL-032 pretreatment” value on NR4A1 (10 µM VHL 032 10 min, then 500 nM NR-V04 16 h) is “prevented”. In addition, the DC50 at NR4A1 (16 h treatment, read-out: 50% degradation concentration (DC50) of NR4A1) worked out at 229 nM. In addition, the tumor growth result is “unable to inhibit tumor growth” with B16F10 melanoma (B16F10 in B6.129S2-Ighm^tm1Cgn/J mice that lack mature B cells); “failed to inhibit B16F10” in the assay with B16F10 melanoma (B16F10 in NR4A1^−/− mice, 1.8 mg/kg i.p.); “failed to inhibit tumor growth” in the assay with B16F10 melanoma (B16F10 in NSG mice, 1.8 mg/kg i.p.); “effectively inhibited tumor growth” in the assay on B16F10 melanoma (B16F10 in WT mice, 1.8 mg/kg NR-V04 or 0.75 mg/kg celastrol i.p. twice a week from day 7).
